Experimental data published in ChEMBL document CHEMBL1201862, “PubChem BioAssay data set” (2004).
The source made the active and inactive calls.

What was measured:
[1] = target: T1, Low molecular weight phosphotyrosine protein phosphatase (Homo sapiens, UniProt P24666); test: LMPTP phosphatase inhibitors, dose response, biochemical, OMFP substrate, fluorescence intensity, set 2 (AID 743307); assay type: functional
T1 sequence (P24666 whole entry): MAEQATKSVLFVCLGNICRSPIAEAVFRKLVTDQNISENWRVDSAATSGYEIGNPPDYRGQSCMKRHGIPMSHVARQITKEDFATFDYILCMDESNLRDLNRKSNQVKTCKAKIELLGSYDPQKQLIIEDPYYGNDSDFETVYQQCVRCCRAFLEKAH

[2] = target: T1, Low molecular weight phosphotyrosine protein phosphatase; test: LMPTP phosphatase inhibitors, colorimetric pNPP readout, dose response, orthogonal assay, biochemical, absorbance, pNPP substrate, LMPTP-A isoform, set 2 (AID 743308); assay type: functional
[3] = target: T2, Mannose-6-phosphate isomerase (Homo sapiens, UniProt P34949); test: human PMI inhibitors, high substrate, primary screen, biochemical, fluorescence intensity, high mannose 6-phosphate (AID 1220)
T2 sequence (P34949 whole entry): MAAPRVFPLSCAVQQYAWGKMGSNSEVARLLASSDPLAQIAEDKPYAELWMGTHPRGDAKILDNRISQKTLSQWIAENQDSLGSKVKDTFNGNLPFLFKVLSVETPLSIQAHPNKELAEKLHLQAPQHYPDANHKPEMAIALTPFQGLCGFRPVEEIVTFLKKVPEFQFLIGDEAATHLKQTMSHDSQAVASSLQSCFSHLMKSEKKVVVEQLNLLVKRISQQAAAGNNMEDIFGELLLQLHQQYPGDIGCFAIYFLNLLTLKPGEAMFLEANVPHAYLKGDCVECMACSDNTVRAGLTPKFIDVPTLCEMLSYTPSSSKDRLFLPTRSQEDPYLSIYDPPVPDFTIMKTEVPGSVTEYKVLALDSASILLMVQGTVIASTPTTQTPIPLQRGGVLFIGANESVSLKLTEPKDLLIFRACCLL

[4] = growth suppression of beta-catenin-knockout colon cells, dose response, cell-based, HCT116, human colon tumor (AID 1045); assay type: functional;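 note: HCT116 colon tumor cells with beta catenin knocked out; cells exposed to compound for 60 hours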
[5] = growth suppression of PTEN-null colon cells, dose response, cell-based, HCT116 PTEN knockout (AID 1047); assay type: functional;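 note: HCT116 colon tumor cells with PTEN knocked out; cells exposed to compound for 60 hours before readout; potency for loss of cell viability measured by luminescence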
cells [6] = assay type: functional, cell-based
[7] = inhibitors of clade B AD8 Env fusion, dose response, cell-based, cherry-pick (AID 652062); assay type: functional;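 note: luciferase signal from cell-cell fusion driven by HIV-1 clade B AD8 Env; potency is for inhibitors of fusion seen as a drop in luminescence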
cells [8] = assay type: functional, cell-based; remark: listed apart in the source
Nonstructural protein 1 = Nonstructural protein 1 (Influenza A virus, UniProt Q194T2); assay type: functional, Influenza A virus (A/California/07/2009(H1N1))
[9] = CEM21 lymphoblast cell cytotoxicity, dose response, cytotoxicity control for viral fusion inhibitor project, CellTiter-Glo luminescence, cherry-picked (AID 652042); assay type: functional, cell-based;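 note: potency for signal decrease meaning cytotoxicity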
INS1 = test: beta cell apoptosis inhibitors, cytokine rescue, dose response, luminescence, retest (AID 449756); assay type: functional, cell-based; settings: Rattus norvegicus;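 note: cell death triggered by IL-1 beta plus TNF-alpha plus IFN-gamma mixture; protective hits raise ATP signal compared with cytokine alone wells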
[10] = target: T3, Replicative DNA helicase DnaB (Mycobacterium tuberculosis, UniProt P9WMR3); test: DnaB intein splicing inhibitors, dose response, biochemical, cell-free fluorescence (AID 449749); assay type: functional
T3 sequence (P9WMR3 whole entry): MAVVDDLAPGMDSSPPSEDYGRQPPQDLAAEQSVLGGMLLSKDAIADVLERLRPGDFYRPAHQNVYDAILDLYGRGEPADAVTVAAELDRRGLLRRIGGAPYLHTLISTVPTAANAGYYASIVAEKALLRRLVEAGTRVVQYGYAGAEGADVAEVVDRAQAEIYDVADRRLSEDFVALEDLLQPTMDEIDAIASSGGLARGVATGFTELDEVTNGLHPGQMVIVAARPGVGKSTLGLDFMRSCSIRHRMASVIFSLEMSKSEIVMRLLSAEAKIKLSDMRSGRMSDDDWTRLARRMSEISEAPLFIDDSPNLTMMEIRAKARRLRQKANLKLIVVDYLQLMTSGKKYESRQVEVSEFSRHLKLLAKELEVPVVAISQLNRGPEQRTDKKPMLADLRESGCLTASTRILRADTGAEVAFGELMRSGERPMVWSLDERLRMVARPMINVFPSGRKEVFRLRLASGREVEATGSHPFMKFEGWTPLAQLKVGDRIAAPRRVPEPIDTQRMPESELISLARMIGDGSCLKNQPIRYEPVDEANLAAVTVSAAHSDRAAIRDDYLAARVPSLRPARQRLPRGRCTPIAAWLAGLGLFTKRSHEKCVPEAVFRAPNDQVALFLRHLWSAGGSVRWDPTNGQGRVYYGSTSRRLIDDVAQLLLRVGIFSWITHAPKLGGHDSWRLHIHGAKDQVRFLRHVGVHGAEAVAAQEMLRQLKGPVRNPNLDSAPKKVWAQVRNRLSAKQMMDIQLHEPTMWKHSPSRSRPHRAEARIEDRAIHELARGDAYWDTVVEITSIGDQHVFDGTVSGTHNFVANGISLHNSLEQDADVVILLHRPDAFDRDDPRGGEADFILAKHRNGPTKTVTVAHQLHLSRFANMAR

Protein RecA = target: T4, Protein RecA (Mycobacterium tuberculosis, UniProt P9WHJ3); test: Fluorescence Cell-Free Homogeneous Dose Retest to Identify Inhibitors of RecA-Intein Splicing Activity. [Related pubchem assays (depositor defined):AID2097, AID2223, AID489010, AID492950]; assay type: functional
T4 sequence (P9WHJ3 whole entry): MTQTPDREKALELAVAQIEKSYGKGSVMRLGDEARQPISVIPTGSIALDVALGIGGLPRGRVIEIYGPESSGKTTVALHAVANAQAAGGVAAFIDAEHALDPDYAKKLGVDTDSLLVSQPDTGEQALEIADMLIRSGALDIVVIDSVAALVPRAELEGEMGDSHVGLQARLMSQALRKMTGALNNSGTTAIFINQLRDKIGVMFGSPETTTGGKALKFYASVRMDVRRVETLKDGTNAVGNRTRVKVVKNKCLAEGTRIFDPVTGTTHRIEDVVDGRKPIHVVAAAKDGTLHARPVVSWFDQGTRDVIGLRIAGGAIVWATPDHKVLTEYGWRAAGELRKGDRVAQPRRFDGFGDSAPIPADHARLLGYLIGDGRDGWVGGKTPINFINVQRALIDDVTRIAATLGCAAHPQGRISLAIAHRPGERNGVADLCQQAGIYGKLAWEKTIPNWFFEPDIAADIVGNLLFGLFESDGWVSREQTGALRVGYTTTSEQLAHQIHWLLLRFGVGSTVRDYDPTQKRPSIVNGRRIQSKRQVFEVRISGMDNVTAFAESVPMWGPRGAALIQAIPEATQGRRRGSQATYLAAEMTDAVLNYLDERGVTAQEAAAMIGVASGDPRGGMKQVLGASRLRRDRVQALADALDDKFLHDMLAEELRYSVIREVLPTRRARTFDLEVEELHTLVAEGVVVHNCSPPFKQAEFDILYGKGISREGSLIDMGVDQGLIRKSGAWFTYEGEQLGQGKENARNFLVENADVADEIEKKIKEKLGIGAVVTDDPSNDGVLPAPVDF

[11] = Intein inhibitors as potential Tuberculosis drugs, a cytotoxicity screen. [Related pubchem assays (depositor defined):AID2221, AID2223, AID434968, AID435010, AID449749, AID449750, AID489010]; assay type: functional
[12] = Vero cell cytotoxicity, dose response, cytotoxicity control for Vif-APOBEC3G degradation inhibitor project, Vero cells (AID 1117358); assay type: functional; settings: Human immunodeficiency virus 1, Vero
HEK293 [13] = test: NOD2 signaling inhibitors in MDP-stimulated cells, cell-based, uHTS, luminescence (AID 2001); assay type: functional; settings: Homo sapiens
HEK293 [14] = test: cells; assay type: functional, cell-based; settings: Homo sapiens
HEK293 [15] = test: cells; assay type: functional, cell-based; settings: Homo sapiens; remark: listed apart in the source
HEK293 [16] = test: cells; assay type: functional, cell-based; settings: Homo sapiens; remark: listed apart in the source
[17] = target: Nucleotide-binding oligomerization domain-containing protein 2 (Homo sapiens, UniProt Q9HC29); test: NOD2 signaling inhibitors, cell-based, luminescence, uHTS, HEK293 (AID 1566); assay type: functional
HEK293 [18] = test: NOD1 signaling inhibitors, primary screen, cell-based, luminescence, uHTS (AID 1578); assay type: functional; settings: Homo sapiens
NADPH oxidase 1 = NADPH oxidase 1 (Homo sapiens, UniProt Q9Y5S8); test: Late-stage luminescence-based cell-based dose response assay to identify inhibitors of NADPH oxidase 1 (NOX1): Synthesized analogs 2.; assay type: functional
[19] = target: Solute carrier family 12 member 2/member 5 (Homo sapiens, UniProt P55011+Q9H2X9); test: KCC2 and NKCC1 inhibition by rubidium flux, cell-based, NKCC1 counter-screen (AID 1734); assay type: functional, HEK293
[20] = target: T5, Dual specificity protein phosphatase 6 (Rattus norvegicus, UniProt Q64346); test: MKP-3 phosphatase inhibitors, primary screen, biochemical, rat enzyme, in vitro (AID 425)
T5 sequence (Q64346 whole entry): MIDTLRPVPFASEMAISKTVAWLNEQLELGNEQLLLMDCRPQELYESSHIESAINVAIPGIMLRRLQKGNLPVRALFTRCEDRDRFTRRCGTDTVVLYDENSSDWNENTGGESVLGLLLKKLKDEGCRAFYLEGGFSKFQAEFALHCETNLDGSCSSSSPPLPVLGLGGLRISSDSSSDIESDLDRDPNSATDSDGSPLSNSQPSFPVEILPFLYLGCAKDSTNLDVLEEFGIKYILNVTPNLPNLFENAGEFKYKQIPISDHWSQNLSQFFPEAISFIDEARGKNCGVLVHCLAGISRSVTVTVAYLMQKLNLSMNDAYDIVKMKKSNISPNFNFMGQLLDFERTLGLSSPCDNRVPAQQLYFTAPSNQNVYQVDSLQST

Bcl-2-related protein A1 [21] = target: T6, Bcl-2-related protein A1 (Mus musculus, UniProt Q07440); test: Bfl-1 inhibitors blocking BH3 peptide binding, confirmation, biochemical, TR-FRET, mouse Bfl-1 (AID 621);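 note: TR-FRET binding of GST-Bfl-1 to FITC-labelled Bid peptide via terbium antibody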
T6 sequence (Q07440 whole entry): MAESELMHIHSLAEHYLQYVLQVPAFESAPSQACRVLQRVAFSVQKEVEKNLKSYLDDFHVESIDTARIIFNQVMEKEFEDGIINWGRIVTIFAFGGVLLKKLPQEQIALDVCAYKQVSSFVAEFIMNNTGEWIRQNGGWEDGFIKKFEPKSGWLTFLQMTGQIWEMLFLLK

Bcl-2-related protein A1 [22] = target: T6, Bcl-2-related protein A1; test: Bfl-1 inhibitors, primary screen, biochemical, fluorescence polarization, FITC-Bid, mouse (AID 432)
Danio rerio = test: In Vivo Angiogenesis Dose-Response Confirmation. [Related pubchem assays: 732 (Assay preceding this confirmatory assay.)]; assay type: functional, organism-based
[23] = target: T7, High affinity choline transporter 1 (Homo sapiens, UniProt Q9GZV3); test: CHT inhibitors, dose response, cell-based, 5-point CRC, membrane potential dye (AID 504840); assay type: functional
T7 sequence (Q9GZV3 whole entry): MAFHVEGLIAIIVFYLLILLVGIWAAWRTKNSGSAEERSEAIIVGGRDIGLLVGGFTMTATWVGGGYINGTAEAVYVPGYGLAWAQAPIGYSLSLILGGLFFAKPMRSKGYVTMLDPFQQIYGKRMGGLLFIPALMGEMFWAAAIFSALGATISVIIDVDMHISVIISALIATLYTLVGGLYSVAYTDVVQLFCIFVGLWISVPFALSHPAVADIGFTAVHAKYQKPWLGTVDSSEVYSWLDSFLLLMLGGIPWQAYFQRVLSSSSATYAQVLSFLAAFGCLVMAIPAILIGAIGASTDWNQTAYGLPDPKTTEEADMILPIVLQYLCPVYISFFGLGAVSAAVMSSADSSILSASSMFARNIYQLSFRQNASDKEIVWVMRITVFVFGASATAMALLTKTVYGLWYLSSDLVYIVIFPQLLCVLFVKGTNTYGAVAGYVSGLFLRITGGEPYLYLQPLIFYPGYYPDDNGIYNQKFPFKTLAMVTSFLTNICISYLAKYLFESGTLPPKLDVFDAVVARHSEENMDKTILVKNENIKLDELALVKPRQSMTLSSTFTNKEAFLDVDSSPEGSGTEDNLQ

Sequence of Nonstructural protein 1 (Q194T2 whole entry, the tested form may be a part): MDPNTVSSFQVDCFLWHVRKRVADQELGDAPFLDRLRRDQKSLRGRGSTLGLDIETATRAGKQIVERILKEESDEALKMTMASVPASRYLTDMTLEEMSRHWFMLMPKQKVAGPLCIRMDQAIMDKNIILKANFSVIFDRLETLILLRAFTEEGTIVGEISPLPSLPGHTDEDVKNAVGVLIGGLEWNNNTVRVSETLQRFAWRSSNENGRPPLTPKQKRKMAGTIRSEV
Sequence of NADPH oxidase 1 (Q9Y5S8 whole entry): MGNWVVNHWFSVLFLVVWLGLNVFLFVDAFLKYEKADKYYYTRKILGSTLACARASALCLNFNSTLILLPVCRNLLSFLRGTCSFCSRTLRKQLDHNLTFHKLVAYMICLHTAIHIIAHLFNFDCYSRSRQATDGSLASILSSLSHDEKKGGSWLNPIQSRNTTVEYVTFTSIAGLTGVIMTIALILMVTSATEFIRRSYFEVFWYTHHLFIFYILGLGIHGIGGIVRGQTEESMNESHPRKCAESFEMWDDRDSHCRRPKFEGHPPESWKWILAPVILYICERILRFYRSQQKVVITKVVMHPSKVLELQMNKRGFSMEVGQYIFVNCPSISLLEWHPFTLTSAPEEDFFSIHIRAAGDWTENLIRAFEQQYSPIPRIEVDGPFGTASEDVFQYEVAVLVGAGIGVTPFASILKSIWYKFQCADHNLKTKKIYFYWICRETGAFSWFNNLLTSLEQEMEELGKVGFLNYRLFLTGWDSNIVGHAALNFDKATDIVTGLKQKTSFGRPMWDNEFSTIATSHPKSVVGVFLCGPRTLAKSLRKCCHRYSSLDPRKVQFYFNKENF
Sequence of Nucleotide-binding oligomerization domain-containing protein 2 (Q9HC29 whole entry, the tested form may be a part): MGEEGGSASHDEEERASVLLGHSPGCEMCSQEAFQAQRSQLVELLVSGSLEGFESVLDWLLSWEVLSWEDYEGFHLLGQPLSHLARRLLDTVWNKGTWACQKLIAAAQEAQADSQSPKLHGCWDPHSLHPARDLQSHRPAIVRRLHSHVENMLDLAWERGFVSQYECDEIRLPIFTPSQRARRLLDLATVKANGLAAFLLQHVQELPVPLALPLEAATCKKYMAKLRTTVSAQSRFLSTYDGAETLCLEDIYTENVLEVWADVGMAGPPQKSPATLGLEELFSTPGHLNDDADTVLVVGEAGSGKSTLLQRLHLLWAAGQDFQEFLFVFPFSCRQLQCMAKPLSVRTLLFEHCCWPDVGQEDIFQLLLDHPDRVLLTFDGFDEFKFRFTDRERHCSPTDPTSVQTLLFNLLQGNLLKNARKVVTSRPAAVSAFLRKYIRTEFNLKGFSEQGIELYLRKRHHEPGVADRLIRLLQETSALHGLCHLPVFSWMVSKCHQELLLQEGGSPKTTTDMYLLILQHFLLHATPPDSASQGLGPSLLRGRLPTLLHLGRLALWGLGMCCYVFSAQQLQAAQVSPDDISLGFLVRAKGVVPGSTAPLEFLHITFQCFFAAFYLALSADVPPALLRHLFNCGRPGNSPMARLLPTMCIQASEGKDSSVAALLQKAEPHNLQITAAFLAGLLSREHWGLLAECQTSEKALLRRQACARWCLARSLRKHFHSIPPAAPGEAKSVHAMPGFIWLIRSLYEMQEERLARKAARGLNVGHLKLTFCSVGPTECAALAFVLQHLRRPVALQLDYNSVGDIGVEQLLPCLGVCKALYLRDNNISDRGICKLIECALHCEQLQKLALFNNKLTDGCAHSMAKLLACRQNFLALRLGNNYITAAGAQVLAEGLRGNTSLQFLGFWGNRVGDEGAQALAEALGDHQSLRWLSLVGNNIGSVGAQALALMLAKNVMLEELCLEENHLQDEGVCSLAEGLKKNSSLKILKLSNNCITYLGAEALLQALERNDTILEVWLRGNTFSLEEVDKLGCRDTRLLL

With `CC1CCN(c2nc(-c3ccccc3)nc3ccccc23)CC1` the IC50 [1] was > 80 µM (inactive) and the IC50 [2] was > 80 µM (inactive).

With `COc1ccccc1N1CCN(Cc2ccc(O)c3ncccc23)CC1` the IC50 [3] was 19.2 µM (active), the EC50 [4] was 1.95 µM (active) and the EC50 [5] was 2.25 µM (active). The EC50 (cells [6]) was > 350 µM (not active), the AC50 [7] was 29.6 µM (active) and the EC50 (cells [8]) was 12.1 µM (active). The IC50 (Nonstructural protein 1) was 5.46 µM (active), the AC50 [9] was 3.39 µM (active) and the AC50 (INS1) was 2.27 µM (active).

For `CN(C1=C(NC(=O)c2ccc(Cl)cc2)C(=O)c2ccccc2C1=O)c1ccccc1`, the EC50 [4] was 8.39 µM (active), the EC50 [5] was 7.51 µM (active) and the AC50 [10] was 3.94 µM (active). The EC50 (Protein RecA) was 1.66 µM (active), the CC50 [11] was 20.1 µM (active) and the CC50 [12] was > 40 µM (active). The IC50 (HEK293 [13]) was 8.31 µM (active), the IC50 (HEK293 [14]) was 5.15 µM (active) and the IC50 (Nonstructural protein 1) was 7.27 µM (active). The AC50 (INS1) was 3.01 µM (active), the IC50 (HEK293 [15]) was > 20 µM (inactive) and the IC50 (HEK293 [16]) was 9.67 µM (active). For the same compound, the EC50 [17] was 11.4 µM (active) and the EC50 (HEK293 [18]) was > 20 µM (inactive).

With `O=C(Nc1c(F)cccc1F)N1c2ccccc2Sc2ccccc21` the IC50 (NADPH oxidase 1) was 0.636 µM (active).

For `O=S(=O)(NCc1ccccc1)c1ccc(Cl)c(S(=O)(=O)NCc2ccccc2)c1`, the IC50 [19] was 9.1 µM (active).

With `N#Cc1c(N)sc(=S)c2c1CCN(Cc1ccccc1)C2` the IC50 [20] was 10.8 µM (active), the IC50 (Bcl-2-related protein A1 [21]) was > 100 µM (not active) and the IC50 (Bcl-2-related protein A1 [22]) was > 100 µM (not active).

With `C[N+](C)(C)CCOC(=O)CBr` [E1001] the IC50 (Danio rerio) was 31.6 µM (not active) and the IC50 [23] was 14.1 µM (active).
